# Source: paper PMC12867150, “A fungi-derived cyclic peptide enhances Th9-mediated antitumor immunity by targeting ZAP70 and SREBP1” (The Journal of Clinical Investigation, 2025)
# Values joined by “and” are separate entries in the source; they are usually repeats but may differ in a detail not shown here. Equal values may be shown once.
# Assays:
# [1] = tested on: Th17 cells; test: Th17 polarization, IL-17 by flow cytometry (Figure 1H); format: cell-based, mouse
# Description: Naive CD4^+ T cells were isolated from the spleens of C57BL/6J or CD45.1^+ OT-II mice using the MojoSort Mouse CD4 Naive T Cell Isolation Kit (BioLegend, catalog 480040), following the manufacturer’s protocol. Purified cells were cultured in RPMI-1640 medium supplemented with 10% FBS, 1% penicillin-streptomycin, and 0.1% β-mercaptoethanol (Gibco, catalog 21985023).
# T cell polarization was initiated under plate-bound anti-CD3 (2 μg/mL, clone 17A2, BioXCell, catalog BE0002) and soluble anti-CD28 (1 μg/mL, clone 37.51, BioXCell, catalog BE0015-1) stimulation, with the addition of cytokines and neutralizing antibodies specific to each subset. For Th9 cells, these included IL-4 (10 ng/mL, Peprotech, catalog 400-04), TGF-β (1 ng/mL, EPOTO Biotech, catalog HF-2021), anti–IL-12 (5 μg/mL, clone C17.8, BioXCell, catalog BE0051), and anti–IFN-γ (10 μg/mL, clone XMG1.2, BioXCell, catalog BE0055); for Th1 cells, these included IL-12 (10 ng/mL, GenScript, catalog Z03211-50) and anti–IL-4 (5 μg/mL, clone 11B11, BioXCell, catalog BE0045); for Th2 cells, these included IL-4 (50 ng/mL), anti–IFN-γ (20 μg /mL), anti–IL-12 (5 μg/mL), Th17 cells: IL-6 (20 ng/mL, EPOTO Biotech, catalog MF-1006), TGF-β (1 ng/mL), IL-1β (10 ng/mL, Peprotech, catalog AF-211-11B), anti–IFN-γ (10 μg/mL), anti–IL-12 (5 μg/mL), and anti–IL-4 (5 μg/mL); and for Tregs, these included TGF-β (3 ng/mL). […]
# [2] = tested on: human Th9 CAR T cells; test: Granzyme B+ CAR Th9 cells from spleens after transfer (S9H-I); format: in vivo, mouse; settings: for Proportion of GzmB⁺ cells in spleen: Supplemental Figure 9I
# Description: For xenograft models, M-NSG mice were intravenously inoculated with 1 × 10^6 Raji-CD19 tumor cells. On day 5 after inoculation, 2 × 10^6 CD19-CAR Th9 cells were administered intravenously to evaluate in vivo therapeutic efficacy. Tumor progression and immune cell infiltration were subsequently monitored according to experimental endpoints.
# Details regarding staining panels (human and mouse), reagents (including clones and catalog numbers), acquisition settings, compensation/controls, and analysis procedures are provided in Supplemental Methods. […]
# Th9 CAR-T c e l l s (n = 3). (H and I) Flow-cytometric analysis of granzyme B⁺ CAR-
# Th9 cells isolated from spleens after adoptive transfer, showing representative plots
# (H) and quantification (I) (n = 5 mice per group). Statistical analysis was performed
# using one-way ANOVA with Tukey’s post hoc test (A and B), or two-tailed unpaired
# Student’s t-test (E–G, and I). Repeated data are presented as mean ± SEM. *p < 0.05,
# (also on this page, place not known: TP cells ANOV A 30IL-9+ cells (%) Fato Fato Fato Fato A SSC GzmB CtrlEpA MFIofMitoTracker (×102) GF NormalizedATPlevel CtrlEpA 4MFI of Mito Tracker (×105) CtrlEpA0 GzmB+ cells (%) CD4 10 20 IL-9+ cells (%) Day60 10 20 30 Ctrl)
substance,measurement,setting,value
anteiso-C15 Leu7 surfactin [EpA],IL-17 expression under Th17 polarization,"[1]; EpA 10 μM, individual replicates, n = 4",31.3 and 30.4 and 30.7 and 33.1
same,effect on Th17 polarization,[1]; result in words,did not affect
same,granzyme B levels in CAR T cells after transfer,[2]; result in words,elevated
same,Proportion of GzmB⁺ cells in spleen,[2]; replicate 1,22.5
same,Proportion of GzmB⁺ cells in spleen,[2]; replicate 2,28.9
same,Proportion of GzmB⁺ cells in spleen,[2]; replicate 3,40.8
same,Proportion of GzmB⁺ cells in spleen,[2]; replicate 4,84.4
same,Proportion of GzmB⁺ cells in spleen,[2]; replicate 5,47.4
same,granzyme B+ CAR Th9 gate number,"[2]; spleens after transfer, representative flow plot, Figure S9H",47.4
